Measurements: patent publication US20230095341A1, “COMPOSITIONS AND METHODS FOR TREATING NEURODEGENERATIVE, MYODEGENERATIVE, AND LYSOSOMAL STORAGE DISORDERS” (GEORGETOWN UNIVERSITY, priority 2020, published 2023)
Several values for one entry are separate records, joined by “and”; a condition that tells them apart may be missing. Equal values may be shown once. Entries after “also recorded” stand apart in the source; their conditions may differ.

Experiments:
[1] = system: B35 rat neuroblastoma cells; experiment: Lactate dehydrogenase (LDH) assay, cell toxicity; assay type: cell-based; conditions: 5 hours, concentration given in the value
Procedure: (§1) Rat neuroblastoma B35 cells were grown in Dulbecco's Modified Eagle's Medium (DMEM) with 10% Fetal Bovine Serum (FBS) and 1% penicillin/streptomycin and incubated at 37° C. with 5% CO2. For the experiments, cells were transferred to 12-well plates (Cat. #150628, ThermoFisher, Waltham, Mass.) and grown to at least 70% confluence. Transient transfection was performed with 3pg P301L tau (Cat. #30145, Addgene) cDNA or 3pg human a-synuclein cDNA using Fugene HD transfection reagent (Cat. #E2311, Promega, Madison Wis.) for 24 hours. Cells were treated with ImM, I00pM, 10pM, IpM, 0.lIM, 0.01pMl, and 0.001pM dissolved in DMSO or an equivalent SuL of DMSO for 5 hours. Cell culture media was collected and cells were harvested using sodium-tris, EDTA, NP-40 (STEN) buffer and centrifuged at 10,000×g for 20 minutes at 4′C and supernatant was collected. Cell viability was determined via lactate dehydrogenase assay (Cat. #88954, Thermofisher) and MTT assay (Cat. #V13154, Thennofisher). Protein was extracted by removing culture medium and adding 0.2 ml lx STEN buffer (50 mM Tris (pH 7.6), 150 mM NaCl, 2 mM EDTA, 0.2% NP-40, 0.2% BSA, 20 mM PMSF and protease cocktail inhibitor) to cell layer and incubated on ice for 10 minutes. The bottom of the well was scraped and allowed to incubate on ice for an additional 10 minutes. Cell lysates were collected, stored at -80° C., and used for additional analyses.
(§2) Compound 1 (BK5018), Compound 2 (BK5026), Compound 3 (BK5029), Compound 4 (BD5040), Compound 6 (CL2-296). Compound 7 (CL-2-287-1) and Compound 8 (CL-2-287-2) with molecular weights of 284, 339.265, 264, 339, 269 and 247 gimol, respectively, were diluted in Dimethyl Sulfoxide (DMSO) to final concentrations of 100 pM, 10 µM, 1 pM, 0.1 pM, 0.01 pM, and 0.001 pM. Drugs were stored at −80° C.
Cellular cytotoxicity was quantitatively measured by assessment of LDH, a cytosolic enzyme that is released from damaged cells into the cellular media, after exposure to the drug 5 hours after initial dosage. The cell culture media was collected, and an aliquot was coupled with a lactate and NAD+. LDH catalyzes the reaction that converts lactate into pyruvate to produce NADH. NADH, in turn, reduces a tetrazolium salt (NT) into a red fornazan product. The amount of LDH in the media is proportional to the amount of formazan which was measured at 490 nn. The absorbance at 680 nm, to measure the background signal from the instrument, was subtracted from the absorbance at 490 nm to calculate the LDH activity. CelfCulture

[2] = system: B35 rat neuroblastoma cells; experiment: MTT assay, cell viability; assay type: cell-based; conditions: 5 hours, concentration given in the value
Procedure: as §1, §2
To measure cell viability, cells were incubated with 500 pL of Dulbecco's Modified Eagle's Medium (DMEf) containing 50 pL of (3-[4,5-dimethylthiazol-2-yl]-2,5-diphenyl-tetrazolium bromide (ivT)) for 5 hours at 37° C. and 5% CO2. The media was aspirated so that 125 uL of media remained. The formazan salts were dissolved in 250 uL of DMSO. Absorbance was read against a blank containing 125 uL of media and MTT, and 250 uL of DMSO at 570 mn.

[3] = system: alpha-synuclein in a-synuclein-transfected B35 rat neuroblastoma cells; experiment: Reduction of alpha-synuclein in a-synuclein-transfected B35 cells; assay type: cell-based, rat cells transfected with human a-synuclein cDNA; conditions: treatment for five hours with 100aM, lOuM and luM concentrations
Procedure: as §1
To perform transient transfection of a-synuclein into the rat neuroblastoma B35 cells FuGene@ HD Transfection Reagent (Promega Corporation, Madison, Wis.) was used. Cells were grown in 12-well dishes. A mixture containing 12 pg of cDNA, 540 pg of DMEM containing 2% FBS, and 60 pd of FuGene@ HD Transfection Reagent was incubated for 10 minutes. The cells were treated with 50 pl of the FuGeneC HD Transfection Reagent/DNA mixture for 24 hours. Cells were harvested after transfection, media was aspirated, the cells were treated with 200ul of Sodium Tris EDTA NP40 (STEN) lysis buffer then scraped off the plate and collected into a 1.5 ml centrifiuge tube.

murine Tau = experiment: Tau ELISA of whole brain lysates from A53T mice; assay type: in vivo, mouse (A53T); conditions: 21 days, 12 month old A53T mice
[4] = system: Tauopathy rTG4510 mice expressing human P301L tau; experiment: Overnight nest shredding (nesting) behavior; assay type: in vivo, mouse; conditions: 10 mg/kg, 3 weeks, vs DMSO (Kruskal-Wallis P=0.01), rTG4510 mice
Procedure: Tauopathy rTG4510 mice (i.e., a mouse model that clinically manifest a tauopathy), expressing human P301L tau driven by a CAMrII promoter, approximately 9-12 months old, were treated intraperitoneally (I.P.) for 21 consecutive days, […], or Dimethyl sulfoxide (DMSO) (n=7).
Then, blinded, independent observers reviewed images of the overnight shredding and the average quality scores were calculated.
For nest shredding, Mann-Whitney analysis was used within groups, between timepoints, and Kruskal-Wallis analysis was used between treatment groups. For open-field studies, : ordinary one-way ANOVA or Student's I test was used. […]
Blinded independent observers reviewed images of the overnight shredding and the average quality scores were calculated.

[5] = 2.5 mg/kg, 5 mg/kg and 10 mg/kg I.P.

Row | SMILES | cell toxicity, as measured by LDH assay [1] | cell toxicity, as measured by MTT assay [2] | level of alpha-synuclein [3] | murine Tau in whole brain lysates (murine Tau; [5]) | nesting mean difference scores ([4]; listed as CL287-1) | nesting mean difference scores ([4]; listed as CL-287-1) | murine Tau in whole brain lysates (murine Tau; 2.5 mg/kg and 10 mg/kg I.P.)
1 | COc1ccc2nccc(Oc3ccc(C)cc3)c2c1 [BK5029, 6-Methoxy-4-(p-tolyloxy)quinoUne] | low doses of BK5029 displayed increased toxicity | low doses of BK5029 displayed increased toxicity | none of the compounds significantly reduced the level of alpha-synuclein; also recorded: do not significantly reduce | significant reduction |  |  | 
2 | CC(C)(C)c1ccccc1Nc1ccccc1C(=O)O [CL-2-287-1, 2-((2-(tert-Buty)phenyl)amino)benzoic adid] | at 100 uM or less did not show increased cell toxicity | at 100lM or less did not show increased cell toxicity |  |  | significantly different | significantly improved nesting behavior | 
3 | Cc1cccc(Nc2cc(Nc3cccc(C)c3)c3ccccc3n2)c1 [BK5026, N^2,N^4-Di-m-tolyquinoline-2,4-diamine] | lOOuM and 1OuM concentrations of BK5026 displayed increased levels of cell toxicity and 100 uM | OOuM concentrations ofBK5026 displayed increased levels of cell toxicity |  |  |  |  | 
4 | Cc1cccc(Nc2ccc3c(Nc4cccc(C)c4)nccc3c2)c1 [CL2-296, N^4,N^6—Di-m-tolylisoquinoline-1,6-diamine] | 100 uM and IOuM concentrations of CL2-296 displayed decreased levels of LDH and no other concentration of CL2-296 displayed increased cell toxicity and 100luM and 10 uM concentrations of CL2-296 displayed decreased levels of LDH | no concentration of CL2-296 displayed increased cell toxicity | none of the compounds significantly reduced the level of alpha-synuclein; also recorded: do not significantly reduce | significant reduction |  |  | 
5 | COc1ccc2nccc(Nc3cccc(C)c3)c2c1 [BK5030, 6-Methoxy-N-(m-toIyl)quinolin-4-amine] | no concentration of BK5030 displayed increased toxicity | no concentration of BK5030 displayed increased toxicity | none of the compounds significantly reduced the level of alpha-synuclein; also recorded: do not significantly reduce |  |  |  | 
6 | COc1cccc(Nc2ccnc3cc(Cl)ccc23)c1 [BK5018, 7-Chloro-N-(3-methoxyphenyl)quinoin-4-amine] | 100aM and luM of BK5018 displayed increased levels of LDH and 100 uM and luM of BK5018 displayed increased toxicity | no concentration of BK5018 displayed increased toxicity |  |  |  |  | significant reduction
